From US9125416B2, “Pesticidal mixtures” (BASF SE, priority 2010, dated 2015)

Tests used:
Type in all cases: in vivo
[1] = tested on: vetch aphid (Megoura viciae); assay: Test 1: Control of Vetch Aphid, broad bean leaf disks in 24-well-microtiter plates; conditions: sprayed on leaf disks, aphid mortality and fecundity after 5 days
[2] = tested on: green peach aphid (Myzus persicae); assay: Test 2: Control of Green Peach Aphid, liquid artificial diet under artificial membrane, 96-well-microtiter plates; conditions: aphid mortality and fecundity after 3 days
[3] = tested on: boll weevil (Anthonomus grandis); assay: Test 3: Control of Boll Weevil, insect diet with A. grandis eggs, 24-well-microtiter plates; conditions: sprayed onto insect diet, egg and larval mortality after 5 days

C[C@]1(COC(=O)C2CC2)[C@@H]2C[C@H](O)[C@@]3(C)Oc4cc(-c5cccnc5)oc(=O)c4[C@H](O)[C@@H]3[C@@]2(C)CC[C@@H]1OC(=O)C1CC1 [Compound I, [(3S,4R,4aR,6S,6aS,12R,12aS,12bS)-3-(cyclopropanecarbonyloxy)-6,12-dihydroxy-4,6a,12b-trimethyl-11-oxo-9-(pyridin-3-yl)-1,2,3,4,4a,5,6,6a,12a,12b-decahydro-11H,12H-benzo[f]pyrano[4,3-b]chromen-4-yl]methyl cyclopropanecarboxylate]
Oberved Control average ([1]; 0.004 ppm): 25% | Oberved Control average ([2]; 0.004 ppm in aphid diet): 0% | Oberved Control average ([3]; 0.02 ppm): 0%

abamectin
Oberved Control average ([2]; 0.016 ppm in aphid diet): 0%

O=C1C=C(N(CCF)Cc2ccc(Cl)nc2)CO1 [Compound M26.4, 4-{[(6-chloropyrid-3-yl)methyl](2-fluoroethyl)amino}furan-2(5H)-on]
Oberved Control average ([3]; 2 ppm): 0%

Cc1c(COC(=O)[C@@H]2[C@H](/C=C(\Cl)C(F)(F)F)C2(C)C)cccc1-c1ccccc1 (racemic) [Bifenthrin, bifenthrin]
Oberved Control average ([1]; 2 ppm): 0% | Oberved Control average ([2]; 0.08 ppm in aphid diet): 0%
